From the NIST ThermoML archive (doi:10.1021/je500114m) come the findings set out here.

The series in a line: mn = molality of the nth substance listed, in mol/kg. As to conditions: 298.15 K, Ring tensiometer.

± gives the expanded uncertainty stated by the source.

Regarding `O` [water] + C=CC(C)(C)O, the surface tension liquid-gas (m2 = 0) was 70.8 ± 1 mN/m.

Regarding `CC/C=C\CCO` [(Z)-3-hexen-1-ol] + O, the surface tension liquid-gas (m1 = 0.001) is 69.5 ± 0.9 mN/m, the surface tension liquid-gas (m1 = 0.003) turned out to be 65.2 ± 1.4 mN/m, the surface tension liquid-gas (m1 = 0.005) was determined as 63.5 ± 0.8 mN/m and the surface tension liquid-gas (m1 = 0.006) was found to be 61.5 ± 0.8 mN/m.

As for `COC(=O)c1ccccc1O` [methyl 2-hydroxybenzoate] + O, the surface tension liquid-gas is 70.8 ± 0.9 mN/m (m1 = 0.001), 70.1 ± 0.9 mN/m (m1 = 0.0021), 68.9 ± 0.9 mN/m (m1 = 0.0031) and 65.2 ± 1.1 mN/m (m1 = 0.0053).

Consider `O` [water] + CC/C=C\CCOC(C)=O, for which, for the setting “m2 = 0”, the surface tension liquid-gas turned out to be 70.2 ± 1 mN/m.

`CC/C=C\CCOC(C)=O` [(Z)-3-hexenyl acetate] + O: the surface tension liquid-gas is given as 66.8 ± 0.9 mN/m (m1 = 0.0006), 62.3 ± 0.8 mN/m (m1 = 0.0015) and 58.7 ± 1.1 mN/m (m1 = 0.0019).

Regarding `O` [water] + COC(=O)c1ccccc1O, where the note is “m2 = 0”, the surface tension liquid-gas was 71 ± 0.9 mN/m.

Consider `C=CC(C)(C)O` [2-methyl-3-buten-2-ol] + O, for which the surface tension liquid-gas (m1 = 0.001) is given as 70.6 ± 0.9 mN/m, the surface tension liquid-gas (m1 = 0.003) was 69.7 ± 0.9 mN/m, the surface tension liquid-gas (m1 = 0.0052) was 69.5 ± 0.9 mN/m and the surface tension liquid-gas (m1 = 0.0088) was determined as 67.7 ± 0.9 mN/m.

For the compound `O` [water] + CC/C=C\CCO, the surface tension liquid-gas (m2 = 0) is 71.5 ± 0.9 mN/m.

As a reminder, the surface tension liquid-gas is the force per length acting along the surface.
